The values below come from patent US20240208972A1, “LRRK2 INHIBITORS AND USES THEREOF” (NEURON23, INC., priority 2022, published 2024).

The nature of data set [1]: Human hepatocyte stability, in vitro h-Hept CLpredict. Type of data set: in vitro ADME. The following applies: cryopreserved hepatocytes, predicted hepatic clearance, cells without asterisk, read-out: hHep Cl. The method, then: The compounds disclosed herein were tested in vitro on human hepatocyte for in vitro h-Hept CLpredict according to the following procedures. • 1. Compound sock solutions were prepared by dissolving test compound and positive control in dimethyl sulfoxide (DMSO) at a concentration of 10 mM. Stock solutions were then diluted to 100 μM solutions by combining 198 μL of 50% acetonitrile/50% water with 2 μL of the 10 mM stock stock in separate conical tubes. • 2. Cryopreserved hepatocytes were prepared as follows: Incubation medium (William's E Medium supplemented with GlutaMAX) and hepatocyte thawing medium were placed in a 37° C. water bath and allowed to warm for at least 15 minutes prior to use. Cryopreserved hepatocytes were removed from storage, ensuring that vials remained at cryogenic temperatures until thawed. Cells were thawed by placing the vials in a 37° C. water bath and gently shaking the vials for 2 minutes. After thawing was completed, vials were sprayed with 70% ethanol and transferred to a biosafety cabinet. Hepatocytes were transferred into 50 mL conical tube containing thawing medium using wide-bore pipette tips. Tubes were placed into a centrifuge and spun at 100 g for 10 minutes. Then thawing medium was aspirated and hepatocytes were resuspended in enough incubation medium to yield−1.5×10^6 cells/mL. Cells were counted using acridine orange and propidium iodide (AO/PI) staining, and the viable cell density was determined. Cells were diluted with incubation medium to a working cell density of 0.5×10^6 viable cells/mL. • 3. To determine hepatocyte stability, 198 μL of hepatocytes were transferred into each well of a 96-well non-coated plate. Plates were placed in an incubator to allow the hepatocytes to warm for 10 minutes. • 4. The reaction was started by transferring 2 μL of the 100 μM test compound or positive control solution into respective wells of the 96-well non-coated plates. Plates were returned to the incubator until 25 μL aliquots of well contents were sampled at time points of 0, 15, 30, 60, 90 and 120 minutes. The aliquots were then mixed with 6 volumes (150 μL) of acetonitrile containing internal standard, IS (100 nM alprazolam, 200 nM caffeine and 100 nM tolbutamide) to terminate the reaction and vortexed for 5 minutes. After centrifuging the samples for 45 minutes at 3,220 g, aliquots of 100 μL of the supernatant were taken and diluted with 100 μL of ultra-pure water. The mixture was used for LC/MS/MS analysis. All incubations were performed in duplicate.
All calculations were carried out using Microsoft Excel. Peak area ratios (PAR) were determined from extracted ion chromatograms. The in vitro half-life (t1/2) of parent compound was determined by regression analysis of the percent parent disappearance vs. time curve as follows:
The in vitro half-life (in vitro t1/2) was determined from the slope value:
Conversion of the in vitro t1/2 (in minutes) into the in vitro intrinsic clearance (in vitro CLint, in μL/min/1×10^6 cells) was done using the following equation (mean of duplicate determinations): […]
The scaled-up intrinsic clearance (CLint, mL/min/kg), predicted hepatic clearance (CLH, mL/min/kg) and hepatic extraction ratio (ER) were calculated using the following equations:
CLint=(0.693/t1/2)*(1/(hepatocyte concentration (0.5*10^6 cells/mL))*scaling factors (Table (A)
• CLHept-predict=(QH*Scaled-up CLint*fub)/(QH+Scaled-up CLint*fub) • ER=CLH/QH • Where: • V=incubation volume (0.2 mL) • N=number of hepatocytes per well (0.1*10^6 cells) • QH=hepatic blood flow (mL/min/kg) (Table (A)
• fub=fraction of unbound drug in plasma, assumed to be 1 • Values used for calculation of the predicted hepatic clearance parameters data processing rules are outlined in the following tables (A) (B)

Data set [2] concerns the target T1, wt human LRRK2, catalytic site (Homo sapiens, UniProt Q5S007).
T1 construct: wt human LRRK2, catalytic site, catalytic site (ThermoFisher/USA); purchased ThermoFisher
Description: TR-FRET LanthaScreen Tb Kinase Activity Assay, LRRK2 kinase inhibition. Type of data set: biochemical. The following applies: 2 nM wt human LRRK2, 400 nM peptide, 38 μM ATP. The method, then:
The compounds disclosed herein were tested for their inhibitory effect on LRRK2 kinase according to the following procedures.
The protocol for basic TR-FRET LanthaScreen Tb Kinase Activity Assay inhibitor studies is as follows. LanthaScreen Kinase Activity Assays (ThermoFisher/USA) to evaluate inhibitors were performed by addition of 100 nL of test compound in the corresponding DMSO dilutions/5 L of kinase/fluorescein-ERM(LRRKtide) peptide mixture, Compound & kinase were pre-incubated for 15 minutes, then 5 μl of ATP into 384 well small volume plates. After incubation for 120 minutes at room temperature, the detection reagents containing Tb-anti-pLRRKtide antibody were added to monitor the phosphrylation level of peptide. Then, after 60 min minutes incubation at room temperature plates were read in Envision. Data analysis of emission ratios was according to the LanthaScreen Tb Kinase Activity Assay protocol.
Kinase and assay components were adjusted to final concentrations according to the kit protocol. For LRRK2: 2 nM wt human LRRK2, catalytic site, catalytic site (ThermoFisher/USA), 400 nM peptide, 38 μM ATP in 1× Kinase Buffer A.
Basic protocol for TR-FRET LanthaScreen Tb Kinase Activity Assay inhibitor studies involved two steps: Enzymatic step: Addition of 100 nl of test compound in corresponding DMSO dilutions, 5 μl of kinase/substrate mixture, 5 μl of ATP into 384 well small volume plates. Incubation for 120 minutes at room temperature.
Detection step: Addition of 10 μl EDTA & antibody, read plate after 60 minutes. Data analysis of emission ratios according to KinEASE assay protocol.
Kinase and assay components were adjusted to final concentrations according to the kit protocol.
On the technique in general: In TR-FRET formats the signal depends on donor and acceptor labels being close together.

The subject of the next data set is Caco-2 cells. Description: Caco-2 bidirectional permeability. As to conditions: for Caco-2 A2B (10^−6 cm/s): A to B; for Caco-2 A2B (10^−6 cm/s) / Caco-2 B2A (10^−6 cm/s): HBSS pH 7.4, 2 hours; for Caco-2 B2A (10^−6 cm/s): B to A; for Caco-2 ER: Efflux Ratio=Papp (BA)/Papp (AB). Type of data set: in vitro ADME. The method, then:
The compounds disclosed herein were tested in vitro on CaCo2 cell penetration according to the following procedures.
Test compounds were prepared in dimethyl sulfoxide (DMSO).
Caco-2 cells purchased from ATCC were seeded onto […] (PET) in 96-well Corning Insert plates at 1×10^5 cells/cm^2. The media were refreshed every 4 to 5 days until the 21st to 28th day for confluent cell monolayer formation.
Experiments were run in duplicate using a HBSS transport buffer containing 10 mM HEPES at pH 7.4. The test article TEST COMPOUND was tested bi-directionally at […] concentrations, the control compound digoxin was tested bi-directionally at 10 μM, and nadolol and metoprolol were tested at 2.0 μM in the A to B direction. Final DMSO concentrations were adjusted to less than 1%. The plates were incubated for 2 hours in a CO2 incubator at 37±1° C. with 5% CO2 at saturated humidity without shaking. Following incubation, samples were mixed with acetonitrile containing internal standard and centrifuged at 3200×g for 10 minutes. Then 200 μL of supernatant was taken from all samples. For TEST COMPOUND and digoxin, the supernatant was diluted with 200 μL of ultra-pure water and for nadolol and metoprolol, the supernatant was diluted with 600 μL of ultra-pure water. All samples were analyzed by LC-MS/MS. Concentrations of TEST COMPOUND and control compounds were determined in starting solutions, donor well solutions, and receiver well solutions using peak area ratios (PAR) of analyte to internal standard. After the transport assay, a lucifer yellow rejection assay was run to determine the Caco-2 cell monolayer integrity.
The apparent permeability (Papp), the % recovery and the efflux ratio were calculated as follows: • 1. Papp=(dCr/dt)×Vr/(A×C0) • 2. % Recovery=100×[(Vr×Cr)+(Vd×Cd)]/(Vd×C0) • 3. Efflux Ratio=Papp (BA)/Papp (AB) • Where: • dCr/dt is the slope of the cumulative concentration in the receiver compartment versus time (mM/s). • Vr and Vd is the volume in the receiver and donor compartments (0.075 mL on the apical side, 0.25 mL on the basolateral side), respectively. • A is the surface area of the cell monolayer (0.0804 cm^2). • C0 is the measured donor concentrations (μM) at the beginning of the experiment. • Cd and Cr are the final measured concentrations in the donor and receiver compartments, respectively.
The cell monolayer tight junction integrity assay was conducted after completion of the transport assay by adding Lucifer Yellow (LY) to the apical wells at 100 μM and incubating the cells for 30 minutes. Following incubation, tight junction integrity was assessed from LY concentrations in the basolateral compartment (receiver well) and the apical compartment (donor well) using fluorescence detection as follows: […]
(Passage across Caco-2 layers is used to estimate intestinal permeability.)

Where only a bound is given, the exact number is not on record here.

T1 sequence (Q5S007 1879-2138 limits assumed): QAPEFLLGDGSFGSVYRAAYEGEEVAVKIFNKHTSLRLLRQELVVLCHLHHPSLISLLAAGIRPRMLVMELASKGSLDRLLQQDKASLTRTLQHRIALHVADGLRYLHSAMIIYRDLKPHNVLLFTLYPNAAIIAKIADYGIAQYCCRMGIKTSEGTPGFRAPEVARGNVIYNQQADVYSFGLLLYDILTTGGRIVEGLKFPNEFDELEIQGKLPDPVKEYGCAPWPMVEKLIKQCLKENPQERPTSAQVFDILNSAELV

Turning to `Cc1n[nH]c2c1N=C(c1c(F)cccc1F)Nc1cnc(N3CC(F)(F)C3)cc1-2` [Example 2, 13-(3,3-difluoroazetidin-1-yl)-8-(2,6-difluorophenyl)-5-methyl-3,4,7,9,12-pentazatricyclo[8.4.0.02,6]tetradeca-1(10),2(6),4,7,11,13-hexaene], the CLhep predicted at 1 µM in data set [1] was 0.378 to 0.882 L/h/kg. In data set [2], the IC50 (as a rule, the point on the concentration scale where inhibition reaches its midpoint) was less than 2 nM. For the same molecule, in the data set with Caco-2 cells, the “Caco-2 A2B (10^−6 cm/s)” value is “H (H (High permeability)”: A2B (B2A)>5)”, the “Caco-2 B2A (10^−6 cm/s)” value was “H (H (High permeability)”: A2B (B2A)>5)” and the “Caco-2 ER” value was “N (N (Non-substrate)”: ER<2.5)”.

Consider `Cc1n[nH]c2c1N=C(c1c(F)cccc1F)Nc1cnc(N3CCC(F)CC3)cc1-2` [Example 3, 8-(2,6-difluorophenyl)-13-(4-fluoro-1-piperidyl)-5-methyl-3,4,7,9,12-pentazatricyclo[8.4.0.02,6]tetradeca-1(10),2(6),4,7,11,13-hexaene], for which, in data set [1], the CLhep predicted at 1 µM was 0.378 to 0.882 L/h/kg. In addition, the IC50 in data set [2] was less than 2 nM. In addition, in the data set with Caco-2 cells, the “Caco-2 A2B (10^−6 cm/s)” value is listed as “H (H (High permeability)”: A2B (B2A)>5)”, the “Caco-2 B2A (10^−6 cm/s)” value was “H (H (High permeability)”: A2B (B2A)>5)” and the “Caco-2 ER” value is recorded as “N (N (Non-substrate)”: ER<2.5)”.

In the case of `Cc1n[nH]c2c1N=C(c1c(F)cccc1F)Nc1ccc(-c3ccn(C(F)F)n3)cc1-2` [Example 14, 9-[1-(difluoromethyl)pyrazol-3-yl]-5-(2,6-difluorophenyl)-3-methyl-1,6-dihydropyrazolo[4,3-d][1,3]benzodiazepine], the CLhep predicted at 1 µM in data set [1] is greater than 0.882 L/h/kg. This molecule yielded an IC50 in data set [2] of less than 2 nM. In the data set with Caco-2 cells, the “Caco-2 A2B (10^−6 cm/s)” value was “H (H (High permeability)”: A2B (B2A)>5)”, the “Caco-2 B2A (10^−6 cm/s)” value was “H (H (High permeability)”: A2B (B2A)>5)” and the “Caco-2 ER” value was “N (N (Non-substrate)”: ER<2.5)”.

Regarding `Cc1n[nH]c2c1N=C(c1c(F)cccc1F)Nc1cnc(-n3ccc(C(F)(F)F)n3)cc1-2` [Example 15, 8-(2,6-difluorophenyl)-5-methyl-13-[3-(trifluoromethyl)pyrazol-1-yl]-3,4,7,9,12-pentazatricyclo[8.4.0.02,6]tetradeca-1(10),2(6),4,7,11,13-hexaene], in data set [1], the CLhep predicted at 1 µM is 0.378 to 0.882 L/h/kg. Further, the IC50 in data set [2] was less than 2 nM. In addition, in the data set with Caco-2 cells, the “Caco-2 A2B (10^−6 cm/s)” value is recorded as “M (M (Moderate permeability)”: 1≤A2B (B2A)≤5)”, the “Caco-2 B2A (10^−6 cm/s)” value is on record as “M (M (Moderate permeability)”: 1≤A2B (B2A)≤5)” and the “Caco-2 ER” value is “N (N (Non-substrate)”: ER<2.5)”.

Turning to `Cc1n[nH]c2c1N=C(c1c(F)cccc1F)Nc1cnc(NCc3ccc(F)cc3F)cc1-2` [Example 16, N-(2,4-difluorobenzyl)-5-(2,6-difluorophenyl)-3-methyl-1,6-dihydropyrazolo[4,3-d]pyrido[4,3-f][1,3]diazepin-9-amine], the CLhep predicted at 1 µM in data set [1] was 0.378 to 0.882 L/h/kg. The same molecule displayed an IC50 in data set [2] of less than 2 nM. Also, in the data set with Caco-2 cells, the “Caco-2 A2B (10^−6 cm/s)” value is reported as “H (H (High permeability)”: A2B (B2A)>5)”, the “Caco-2 B2A (10^−6 cm/s)” value is reported as “H (H (High permeability)”: A2B (B2A)>5)” and the “Caco-2 ER” value is given as “N (N (Non-substrate)”: ER<2.5)”.

Regarding `Cc1n[nH]c2c1N=C(c1c(F)cccc1F)Nc1ccc(N3C[C@H](C)O[C@@H](C)C3)cc1-2` [Example 24, (2S,6S)-4-(5-(2,6-difluorophenyl)-3-methyl-1,6-dihydrobenzo[d]pyrazolo[3,4-f][1,3]diazepin-9-yl)-2,6-dimethylmorpholine], the CLhep predicted at 1 µM in data set [1] is 0.378 to 0.882 L/h/kg. The IC50 in data set [2] is less than 2 nM. Further, in the data set with Caco-2 cells, the “Caco-2 A2B (10^−6 cm/s)” value is given as “H (H (High permeability)”: A2B (B2A)>5)”, the “Caco-2 B2A (10^−6 cm/s)” value is listed as “H (H (High permeability)”: A2B (B2A)>5)” and the “Caco-2 ER” value is given as “N (N (Non-substrate)”: ER<2.5)”.

As for `CCc1n[nH]c2c1N=C(c1c(F)cccc1F)Nc1cnc(N3CCO[C@@H](C)C3)cc1-2` [Example 35, (S)-4-(5-(2,6-difluorophenyl)-3-ethyl-1,6-dihydropyrazolo[4,3-d]pyrido[4,3-f][1,3]diazepin-9-yl)-2-methylmorpholine], in data set [1], the CLhep predicted at 1 µM is less than 0.378 L/h/kg. The molecule further showed an IC50 in data set [2] of less than 2 nM. In the data set with Caco-2 cells, the “Caco-2 A2B (10^−6 cm/s)” value was “H (H (High permeability)”: A2B (B2A)>5)”, the “Caco-2 B2A (10^−6 cm/s)” value is on record as “H (H (High permeability)”: A2B (B2A)>5)” and the “Caco-2 ER” value is “N (N (Non-substrate)”: ER<2.5)”.
